Experimental data published in patent publication US20140005163A1 (NOVARTIS AG, priority 2010, published 2014).
Values after ≈ are worked out from the molar mass of the structure shown.

Key:
[1] = system: S6 Ribosomal Protein phosphorylation Ser235/236 in TSC1 null mouse embryo fibroblast (MEF) cells; assay: Reverse protein array assay, S6 Ribosomal Protein phosphorylation Ser235/236 in TSC1 null MEF cells; assay type: cell-based; details: 1 h, pS6 ribosomal protein Ser235/236, 60 minutes incubation, read-out: p-S6 IC50
In short: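 TSC1−/− MEFs, seeded and held ≥20 h at 37 °C/5% CO2, were exposed to 8-step serial compound dilutions (0.02% DMSO final; DMSO vehicle control) for 60 min at 37 °C. Cells were then lysed on ice for 10 min and lysates spotted onto reverse protein array chips.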

Solubility at pH 6.8 = assay type: physicochemical; details: pH 6.8, aqueous buffer, thermodynamic from solid; read-out: solubility
In short: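 Following the procedure of Zhou et al. (2007), compound solubility was determined at pH 6.8.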

[2] = system: PKB Ser473 phosphorylation in Rat1-myr-HA-p110 delta cells; assay: Reverse protein array assay, PKB Ser473 phosphorylation in Rat1-myr-p110 delta cells; assay type: cell-based; details: read-out: p-PKB IC50
In short: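 Compound exposure lasted 30 min in Rat1 cells bearing membrane-targeted HA-p110 isoforms, using 8 serial concentrations. Arrayed lysates, each spotted at four dilutions, gave relative fluorescence signals for phospho-Ser473 PKB.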

| SMILES | IC50 [1] [nM] | solubility (Solubility at pH 6.8) [µg/mL] | IC50 [2] [nM] |
| --- | --- | --- | --- |
| CNC(=O)c1cc(-c2ccc3ncc4c(c3c2)n(-c2cn(C)nc2C)c(=O)n4C)cnc1N [Example 224.1, 2-Amino-5-[1-(1,3-dimethyl-1H-pyrazol-4-yl)-3-methyl-2-oxo-2,3-dihydro-1H-imidazo[4,5-c]quinolin-8-yl]-N-methyl-nicotinamide] | 3 | 5 (≈ 11.3 µM) | 154 |
| Cc1nn(C)cc1-n1c(=O)n(C)c2cnc3ccc(-c4cnc5c(c4)C(C)(C)C(=O)N5C)cc3c21 [Example 233, 1-(1,3-Dimethyl-1H-pyrazol-4-yl)-3-methyl-8-(1,3,3-trimethyl-2-oxo-2,3-dihydro-1H-pyrrolo[2,3-b]pyridin-5-yl)-1,3-dihydro-imidazo[4,5-c]quinolin-2-one] | 3 | 11 (≈ 23.5 µM) | 26 |
| CCn1cc(-n2c(=O)n(C)c3cnc4ccc(-c5cnc(OC)nc5OC)cc4c32)c(C)n1 [Example 234.1, 8-(2,4-Dimethoxy-pyrimidin-5-yl)-1-(1-ethyl-3-methyl-1H-pyrazol-4-yl)-3-methyl-1,3-dihydro-imidazo[4,5-c]quinolin-2-one] | 9 | 58 (≈ 130 µM) | 26 |
| COC(C)(C)c1cncc(-c2ccc3ncc4c(c3c2)n(-c2cn(C)nc2C)c(=O)n4C)c1 [Example 239, 1-(1,3-Dimethyl-1H-pyrazol-4-yl)-8-[5-(1-methoxy-1-methyl-ethyl)-pyridin-3-yl]-3-methyl-1,3-dihydro-imidazo[4,5-c]quinolin-2-one] | 1 | 125 (≈ 282 µM) | 41 |
| CCNC(=O)c1cc(-c2ccc3ncc4c(c3c2)n(-c2cn(C)nc2C)c(=O)n4C)cnc1NC [Example 242.1, 5-[1-(1,3-Dimethyl-1H-pyrazol-4-yl)-3-methyl-2-oxo-2,3-dihydro-1H-imidazo[4,5-c]quinolin-8-yl]-N-ethyl-2-methylamino-nicotinamide] | 2 | 5 (≈ 10.6 µM) | 85 |
| CCOc1cc(-c2ccc3ncc4c(c3c2)n(-c2cn(C)nc2C)c(=O)n4C)cnc1CO [Example 243, 1-(1,3-Dimethyl-1H-pyrazol-4-yl)-8-(5-ethoxy-6-hydroxymethyl-pyridin-3-yl)-3-methyl-1,3-dihydro-imidazo[4,5-c]quinolin-2-one] | 4 | 43 (≈ 96.7 µM) | 91 |
| COCCOc1cc(-c2ccc3ncc4c(c3c2)n(-c2cn(C)nc2C)c(=O)n4C)cnc1CO [Example 244, 1-(1,3-Dimethyl-1H-pyrazol-4-yl)-8-[6-hydroxymethyl-5-(2-methoxy-ethoxy)-pyridin-3-yl]-3-methyl-1,3-dihydro-imidazo[4,5-c]quinolin-2-one] | 25 | 92 (≈ 194 µM) | 347 |
| CCn1c(=O)n(-c2cn(C)nc2C)c2c3nc(-c4ccc(OC)c(OC)c4)ccc3ncc21 [Example 251, 8-(3,4-Dimethoxy-phenyl)-1-(1,3-dimethyl-1H-pyrazol-4-yl)-3-ethyl-1,3-dihydro-1,3,5,9-tetraaza-cyclopenta[a]naphthalen-2-one] | 33 | 12 (≈ 27 µM) | 140 |
| COc1ccc(-c2ccc3ncc4[nH]c(=O)n(-c5cc(C)nn5C)c4c3n2)cc1OC [Example 252, 8-(3,4-Dimethoxy-phenyl)-1-(2,5-dimethyl-2H-pyrazol-3-yl)-1,3-dihydro-1,3,5,9-tetraaza-cyclopenta[a]naphthalen-2-one] | 5 | 5 (≈ 12 µM) | 39 |
| COc1ccc(-c2ccc3ncc4c(c3n2)n(-c2cc(C)nn2C)c(=O)n4C)cc1OC [Example 253, 8-(3,4-Dimethoxy-phenyl)-1-(2,5-dimethyl-2H-pyrazol-3-yl)-3-methyl-1,3-dihydro-1,3,5,9-tetraaza-cyclopenta[a]naphthalen-2-one] | < 5 | 7 (≈ 16.3 µM) | 44 |
